Results as given in ChEMBL document CHEMBL1201862, “PubChem BioAssay data set” (2004).
The source made the active and inactive calls.

Legend:
SUMO-activating enzyme [1] = biological target: T1, SUMO-activating enzyme (Homo sapiens, UniProt Q9UBT2); test: inhibitors of in vitro SUMOylation cascade, primary screen, biochemical, HTRF, uHTS (AID 2006); assay type: protein-complex assay
SUMO-activating enzyme [2] = biological target: T1, SUMO-activating enzyme; test: SUMOylation inhibitor hit validation, confirmation, SUMOylation inhibitor project, biochemical, AlphaScreen (AID 2018); assay type: functional
INS1 = test: beta cell apoptosis inhibitors, cytokine rescue, dose response, luminescence, retest (AID 449756); assay type: functional, cell-based; details: Rattus norvegicus;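 also: cell death triggered by IL-1 beta plus TNF-alpha plus IFN-gamma mixture; protective hits raise ATP signal compared with cytokine alone wells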
[3] = inhibitors of SNCA 5'UTR-driven reporter translation, confirmation, H4 neuroglioma cells, luminescence (AID 1988); assay type: functional, cell-based
[4] = HepG2 cell cytotoxicity, dose response, cytotoxicity control, plate reader, cherry-pick, antagonist series (AID 743416); assay type: functional, cell-based
[5] = cytotoxicity toward NIH3T3 fibroblasts, dose response, counter-screen, cell-based, ATP luminescence, mouse fibroblasts (AID 2010); assay type: functional;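 also: cells exposed to compound for about 90 hours before reading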
[6] = inhibitors of intracellular T. cruzi replication, confirmation, NIH3T3 host cells, beta-gal luminescence (AID 2044); assay type: functional, cell-based;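 also: intracellular parasites grown in NIH/3T3 mouse fibroblasts as host cells; luminescent beta-galactosidase reporter signal from transgenic T. cruzi replicating inside host cells; inhibitors lower the luminescence signal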
[7] = biological target: T2, Small ubiquitin-related modifier 1 (Homo sapiens, UniProt P63165); test: inhibitors of SUMO1 peptide binding, dose response, biochemical, fluorescence polarization, uHTS hits (AID 624382); assay type: functional; details: read-out: IC50_Mean
T2 sequence (P63165 whole entry): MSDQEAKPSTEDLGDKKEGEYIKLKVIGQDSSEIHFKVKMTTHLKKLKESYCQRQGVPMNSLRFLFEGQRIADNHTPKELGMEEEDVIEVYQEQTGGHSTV

[8] = cytotoxicity in HEK-293T cells, dose response, cytotoxicity control for TCR NF-kB inhibitor project, luminescence, T-cell screen hits (AID 489026); assay type: functional, cell-based;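 also: cells exposed to compound about 14 hours before the viability readout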
[9] = A549 cell cytotoxicity, dose response, cytotoxicity control, plate reader, cherry-pick, antagonist series (AID 743412); assay type: functional, cell-based
[10] = biological target: Cystic fibrosis transmembrane conductance regulator/Golgi-associated PDZ and coiled-coil motif-containing protein (Homo sapiens, UniProt P13569+Q9HD26); test: CAL PDZ peptide-binding inhibitors, dose response, biochemical, fluorescence polarization, Cerulean-tagged CAL PDZ, cherry-picks (AID 504773)
Chain of Cystic fibrosis transmembrane conductance regulator/Golgi-associated PDZ and coiled-coil motif-containing protein (P13569 whole entry, other chains not shown): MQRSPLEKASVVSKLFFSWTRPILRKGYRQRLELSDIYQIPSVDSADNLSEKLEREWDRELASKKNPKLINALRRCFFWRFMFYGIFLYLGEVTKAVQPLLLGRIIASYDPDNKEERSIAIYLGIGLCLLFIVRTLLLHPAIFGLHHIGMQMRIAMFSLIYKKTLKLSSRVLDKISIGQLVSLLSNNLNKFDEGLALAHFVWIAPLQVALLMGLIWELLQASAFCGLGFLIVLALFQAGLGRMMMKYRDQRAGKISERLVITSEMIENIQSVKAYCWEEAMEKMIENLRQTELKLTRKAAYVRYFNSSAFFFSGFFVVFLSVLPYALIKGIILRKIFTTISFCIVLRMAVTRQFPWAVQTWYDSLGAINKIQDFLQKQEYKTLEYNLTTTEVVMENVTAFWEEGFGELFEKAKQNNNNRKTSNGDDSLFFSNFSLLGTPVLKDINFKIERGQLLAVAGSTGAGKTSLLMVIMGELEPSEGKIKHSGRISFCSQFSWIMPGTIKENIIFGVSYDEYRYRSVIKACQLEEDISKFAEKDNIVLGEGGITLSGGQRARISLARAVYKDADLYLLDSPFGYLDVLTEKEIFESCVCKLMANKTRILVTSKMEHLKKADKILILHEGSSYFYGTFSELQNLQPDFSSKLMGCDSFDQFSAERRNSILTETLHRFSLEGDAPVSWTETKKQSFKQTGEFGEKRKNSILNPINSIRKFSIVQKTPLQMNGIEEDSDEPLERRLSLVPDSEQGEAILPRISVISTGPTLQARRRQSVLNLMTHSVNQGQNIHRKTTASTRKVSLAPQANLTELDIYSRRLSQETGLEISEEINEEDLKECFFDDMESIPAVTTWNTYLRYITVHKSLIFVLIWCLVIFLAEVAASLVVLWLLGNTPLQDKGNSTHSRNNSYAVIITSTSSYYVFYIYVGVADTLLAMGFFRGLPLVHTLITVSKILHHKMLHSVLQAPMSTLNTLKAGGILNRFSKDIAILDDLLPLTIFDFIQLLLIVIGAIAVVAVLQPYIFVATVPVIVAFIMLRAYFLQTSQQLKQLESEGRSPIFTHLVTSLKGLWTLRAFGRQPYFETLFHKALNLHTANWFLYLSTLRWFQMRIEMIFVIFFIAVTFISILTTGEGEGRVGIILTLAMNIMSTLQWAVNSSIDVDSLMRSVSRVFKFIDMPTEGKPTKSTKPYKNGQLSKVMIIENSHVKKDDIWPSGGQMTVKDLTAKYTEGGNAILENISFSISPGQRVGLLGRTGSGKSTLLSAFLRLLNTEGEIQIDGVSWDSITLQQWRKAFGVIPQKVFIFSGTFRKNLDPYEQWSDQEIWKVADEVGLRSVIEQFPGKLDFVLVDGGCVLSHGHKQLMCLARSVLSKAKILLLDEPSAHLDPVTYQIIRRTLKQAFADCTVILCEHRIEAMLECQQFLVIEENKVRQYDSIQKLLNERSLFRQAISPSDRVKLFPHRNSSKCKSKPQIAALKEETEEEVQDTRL

[11] = Luminescence Cell-Based Dose Response HTS to Identify Inhibitors of 5'UTR Stem-Loop Driven Prion Protein mRNA Translation in H4 Neuroglioblastoma Cells. [Related pubchem assays: 1827 (Project Summary), 1813 (Primary HTS)]; assay type: functional
[12] = biological target: T3, Ubiquitin-conjugating enzyme E2 N (Homo sapiens, UniProt P61088); assay type: functional
T3 sequence (P61088 whole entry): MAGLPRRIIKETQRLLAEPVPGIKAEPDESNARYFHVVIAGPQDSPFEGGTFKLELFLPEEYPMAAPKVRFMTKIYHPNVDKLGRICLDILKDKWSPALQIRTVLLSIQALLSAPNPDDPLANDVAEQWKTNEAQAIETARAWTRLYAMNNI

HEK293 = test: inhibitors of LMP1-driven NF-kB reporter, dose response, cell-based, HEK293, luciferase, cherry-pick (AID 588343); assay type: functional; details: Homo sapiens
[13] = LGR2 antagonists, dose response, cell-based, HEK293, CRE-luciferase reporter, cherry pick, set 2 (AID 743343); assay type: functional;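 also: transfected cells were stimulated with diluted bursicon conditioned medium after compound addition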
[14] = inhibitors of firefly luciferase expression or activity, dose response, H4 neuroglioma cells, luminescence (AID 1990); assay type: functional, cell-based
[15] = biological target: T3, Ubiquitin-conjugating enzyme E2 N; assay type: functional; remark: listed apart in the source
[16] = biological target: T2, Small ubiquitin-related modifier 1; test: inhibitors of SUMO1 partner interactions, dose response, biochemical, FRET (AID 624383); assay type: functional; details: read-out: IC50_Mean
[17] = biological target: T4, Type-1 angiotensin II receptor (Homo sapiens, UniProt P30556); test: AT1 receptor agonists, dose response, selectivity assay for APJ receptor agonist project, cell-based, uHTS hits (AID 488865); assay type: functional;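 also: beta-arrestin recruitment to AT1 measured by enzyme fragment complementation luminescence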
T4 sequence (P30556 whole entry): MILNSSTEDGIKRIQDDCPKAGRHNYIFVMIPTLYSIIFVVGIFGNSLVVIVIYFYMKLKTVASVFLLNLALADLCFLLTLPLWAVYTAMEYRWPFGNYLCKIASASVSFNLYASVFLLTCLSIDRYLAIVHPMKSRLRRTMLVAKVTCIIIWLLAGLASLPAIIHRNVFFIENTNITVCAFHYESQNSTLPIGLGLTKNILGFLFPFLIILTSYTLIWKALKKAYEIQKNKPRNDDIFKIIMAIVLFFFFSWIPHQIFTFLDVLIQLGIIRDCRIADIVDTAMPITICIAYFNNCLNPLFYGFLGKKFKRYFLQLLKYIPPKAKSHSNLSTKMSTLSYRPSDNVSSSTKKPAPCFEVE

[18] = MC4R antagonists, dose response, counter-screen for LGR2 antagonist project, cell-based, plate reader, cherry pick (AID 743444); assay type: functional;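 also: transfected HEK 293 cells stimulated with alpha-MSH peptide; potency of inhibitors of the alpha-MSH evoked signal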
[19] = microbe, parasite or virus in culture; assay type: functional; details: Mycobacterium tuberculosis
[20] = HEK293 cell cytotoxicity, dose response, cytotoxicity control, plate reader, cherry-picked samples (AID 743446); assay type: functional, cell-based
[21] = biological target: T5, Rac GTPase-activating protein 1 (Homo sapiens, UniProt Q9H0H5); test: MgcRacGAP GTPase-activating activity inhibitors, confirmation, biochemical, ADP Hunter fluorescence, primary and confirmatory (AID 624330); assay type: functional
T5 sequence (Q9H0H5 whole entry): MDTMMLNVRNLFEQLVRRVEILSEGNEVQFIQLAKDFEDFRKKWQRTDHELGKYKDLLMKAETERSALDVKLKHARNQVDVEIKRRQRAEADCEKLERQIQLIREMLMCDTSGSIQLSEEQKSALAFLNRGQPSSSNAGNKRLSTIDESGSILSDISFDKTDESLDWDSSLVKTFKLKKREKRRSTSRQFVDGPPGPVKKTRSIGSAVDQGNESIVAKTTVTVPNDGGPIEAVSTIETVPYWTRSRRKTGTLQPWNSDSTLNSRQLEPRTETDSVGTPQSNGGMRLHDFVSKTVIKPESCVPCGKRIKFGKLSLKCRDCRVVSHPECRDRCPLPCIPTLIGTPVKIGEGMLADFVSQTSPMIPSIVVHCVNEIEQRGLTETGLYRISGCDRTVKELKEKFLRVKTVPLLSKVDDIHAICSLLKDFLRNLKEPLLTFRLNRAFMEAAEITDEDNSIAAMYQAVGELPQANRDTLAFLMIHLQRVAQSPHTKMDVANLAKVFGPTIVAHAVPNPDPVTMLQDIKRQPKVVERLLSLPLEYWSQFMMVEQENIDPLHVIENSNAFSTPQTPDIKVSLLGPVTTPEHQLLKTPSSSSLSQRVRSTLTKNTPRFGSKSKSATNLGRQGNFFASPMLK

[22] = HeLa cell cytotoxicity, dose response, cytotoxicity control for MgcRacGAP inhibitor project (AID 624300); assay type: functional
Bcl-2-related protein A1 = biological target: T6, Bcl-2-related protein A1 (Mus musculus, UniProt Q07440); assay type: functional;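 also: confirmatory dose–response counterscreen on Bfl-1, used to check hits from a UBC13 polyubiquitin inhibitor campaign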
T6 sequence (Q07440 whole entry): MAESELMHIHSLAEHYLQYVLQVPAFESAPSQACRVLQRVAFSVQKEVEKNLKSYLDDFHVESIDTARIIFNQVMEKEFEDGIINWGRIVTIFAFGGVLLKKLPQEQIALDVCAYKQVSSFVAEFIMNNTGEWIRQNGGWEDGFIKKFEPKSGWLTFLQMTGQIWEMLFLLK

[23] = HEp-2 cell cytotoxicity, dose response, cytotoxicity control for RSV inhibitor project, HTS (AID 2410); assay type: functional; details: human respiratory syncytial virus
[24] = biological target: T7, Short transient receptor potential channel 4 (Mus musculus, UniProt Q9QUQ5); test: TRPC4 positive allosteric modulators, dose response, cell-based, HEK293 TRPC4/mu-opioid, Fluo-4 calcium, EC20 DAMGO (AID 434941); assay type: functional
T7 sequence (Q9QUQ5 whole entry): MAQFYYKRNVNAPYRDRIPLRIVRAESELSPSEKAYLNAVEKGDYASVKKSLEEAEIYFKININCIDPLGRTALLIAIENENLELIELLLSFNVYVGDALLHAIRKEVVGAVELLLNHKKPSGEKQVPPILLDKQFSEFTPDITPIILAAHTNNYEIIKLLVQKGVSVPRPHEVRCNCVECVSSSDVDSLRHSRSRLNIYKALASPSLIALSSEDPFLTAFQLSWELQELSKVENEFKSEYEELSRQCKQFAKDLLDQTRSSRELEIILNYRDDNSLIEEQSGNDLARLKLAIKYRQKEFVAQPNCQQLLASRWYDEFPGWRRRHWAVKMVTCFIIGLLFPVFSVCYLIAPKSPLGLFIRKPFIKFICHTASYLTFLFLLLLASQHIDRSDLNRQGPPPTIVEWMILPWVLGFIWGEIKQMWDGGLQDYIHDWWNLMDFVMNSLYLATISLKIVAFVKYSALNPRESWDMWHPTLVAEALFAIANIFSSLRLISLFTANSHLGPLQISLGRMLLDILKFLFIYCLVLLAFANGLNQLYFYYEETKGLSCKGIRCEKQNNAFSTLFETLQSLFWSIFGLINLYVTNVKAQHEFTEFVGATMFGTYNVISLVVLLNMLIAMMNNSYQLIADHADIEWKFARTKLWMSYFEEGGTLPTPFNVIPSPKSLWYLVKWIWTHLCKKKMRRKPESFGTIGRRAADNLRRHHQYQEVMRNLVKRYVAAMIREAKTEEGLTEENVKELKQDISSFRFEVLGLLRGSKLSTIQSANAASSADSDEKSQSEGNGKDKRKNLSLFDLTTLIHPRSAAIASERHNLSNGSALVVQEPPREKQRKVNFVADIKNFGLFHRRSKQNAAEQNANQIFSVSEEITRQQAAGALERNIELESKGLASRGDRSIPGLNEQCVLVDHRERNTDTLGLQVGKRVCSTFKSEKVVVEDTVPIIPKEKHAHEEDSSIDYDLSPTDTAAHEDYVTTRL

T1 sequence (Q9UBE0 whole entry): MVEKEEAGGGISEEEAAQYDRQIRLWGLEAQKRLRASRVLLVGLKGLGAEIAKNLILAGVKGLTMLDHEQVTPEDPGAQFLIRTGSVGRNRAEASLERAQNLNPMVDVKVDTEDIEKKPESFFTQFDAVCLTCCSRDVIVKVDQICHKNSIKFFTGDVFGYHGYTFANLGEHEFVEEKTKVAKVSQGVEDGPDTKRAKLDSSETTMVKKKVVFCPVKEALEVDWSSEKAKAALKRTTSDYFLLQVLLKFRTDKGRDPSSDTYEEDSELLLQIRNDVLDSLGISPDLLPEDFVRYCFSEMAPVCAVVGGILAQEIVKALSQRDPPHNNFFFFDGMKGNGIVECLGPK
T1 sequence (Q9UBT2 whole entry): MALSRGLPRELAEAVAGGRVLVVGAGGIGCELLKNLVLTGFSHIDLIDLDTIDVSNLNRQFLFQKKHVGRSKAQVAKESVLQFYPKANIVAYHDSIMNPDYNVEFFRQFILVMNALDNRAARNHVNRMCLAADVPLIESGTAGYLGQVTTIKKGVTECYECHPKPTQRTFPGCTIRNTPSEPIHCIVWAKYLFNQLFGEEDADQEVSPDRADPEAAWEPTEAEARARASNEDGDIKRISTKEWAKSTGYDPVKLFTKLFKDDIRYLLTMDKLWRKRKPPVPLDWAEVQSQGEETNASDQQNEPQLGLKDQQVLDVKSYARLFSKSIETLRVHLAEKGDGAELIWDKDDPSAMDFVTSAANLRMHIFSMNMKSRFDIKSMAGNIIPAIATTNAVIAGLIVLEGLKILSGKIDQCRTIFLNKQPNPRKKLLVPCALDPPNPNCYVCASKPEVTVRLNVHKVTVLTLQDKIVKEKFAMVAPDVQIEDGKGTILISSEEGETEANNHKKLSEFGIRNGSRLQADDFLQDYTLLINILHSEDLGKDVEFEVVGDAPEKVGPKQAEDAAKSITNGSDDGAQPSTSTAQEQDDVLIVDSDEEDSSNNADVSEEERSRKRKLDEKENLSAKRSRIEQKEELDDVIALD

## COc1ccc(NC(=O)CN2C(=O)S/C(=C/c3cccn3-c3ccc(C(=O)O)cc3)C2=O)cc1
SUMO-activating enzyme [1]
  IC50: 10.5 µM (active)
SUMO-activating enzyme [2]
  IC50: 5.52 µM (active)

## COc1ccc(/C=N/Nc2cc(C)nc3ccc(OC)cc23)c(OC)c1
INS1
  AC50: 7.95 µM (active)
[3]
  EC50: 8.01 µM (active)
[4]
  AC50: 3.97 µM (active)
[5]
  EC50: 7.61 µM (active)
[6]
  EC50: 0.72 µM (active)
[7]
  IC50: > 66.6 µM (inactive)
[8]
  IC50: 28.1 µM (inactive)
[9]
  AC50: 4.32 µM (active)
[10]
  AC50: 38.7 µM (active)
[11]
  EC50: 8.29 µM (active)
[12]
  IC50: 6.39 µM (active)
HEK293
  AC50: 3.43 µM (active)
[13]
  AC50: 8.34 µM (active)
[14]
  EC50: 8.87 µM (active)
[15]
  IC50: 9.1 µM (active)
[16]
  IC50: 9.36 µM (active)
[17]
  EC50: > 100 µM (inactive)
[18]
  AC50: 10.8 µM (active)
[19]
  CC50: 1.77 µM (active)
[20]
  AC50: 9.83 µM (active)
[21]
  IC50: 36.4 µM (active)
[22]
  CC50: 17.9 µM (active)
Bcl-2-related protein A1
  IC50: 11.4 µM (active)

## Sc1nnc(-c2cccc(Cl)c2)n1/N=C/c1ccc(-c2ccccc2Br)o1
SUMO-activating enzyme [1]
  IC50: 28 µM (active)
SUMO-activating enzyme [2]
  IC50: 12.6 µM (active)
[23]
  CC50: > 50 µM (active)

## Oc1[nH]nc(-c2ccccc2)c1/C=N/c1ccc(Cl)cc1
[24]
  EC50: 2.11 µM (active)
